The values below come from ChEMBL document CHEMBL5608163, “Structure modification of anoplin for fighting resistant bacteria” (Eur J Med Chem, 2024).

Converted amounts (≈) assume the structure as drawn. Peptide text beside a SMILES is read from it.

Data set [1] concerns Enterococcus faecium. Kind of data set: Antibacterial activity against Enterococcus faecium. The data set is classed as functional.
Data set [2] concerns Pseudomonas aeruginosa. Description: Antibacterial activity against Pseudomonas aeruginosa ATCC 15442 assessed as reduction in bacterial cell growth incubated for 18 hrs by two fold serial microdilution method. The data set is classed as functional. (In general: Dilution methods test growth across graded concentrations, often in twofold steps.)
Data set [3] in a line: Hemolytic activity in human RBC assessed as hemolysis. Type of data set: toxicity, cell-based, Erythrocyte. To be noted: red blood cells.
In data set [4] the test system is Staphylococcus aureus. Description: Antibacterial activity against Staphylococcus aureus assessed as bacterial growth inhibition incubated for 20 hrs by broth microdilution assay. The data set is classed as functional.
In data set [5] the test system is Escherichia coli. Kind of data set: Antibacterial activity against Escherichia coli assessed as reduction in bacterial growth incubated for 20 hrs by broth microdilution assay. Type of data set: functional.
In data set [6] the test system is Escherichia coli. Description: Antibacterial activity against wild type Escherichia coli MG1655 assessed as reduction in bacterial growth incubated for 18 to 24 hrs by broth micro-dilution method. The data set is classed as functional. To be noted: time 18-24 hrs.
Data set [7] deals with Staphylococcus aureus. Kind of data set: Antibacterial activity against methicillin-resistant Staphylococcus aureus ATCC BAA1720 assessed as bacterial growth inhibition measured for 18 hrs by CLSI-protocol based Mueller-Hinton Broth micro-dilution assay. Type of data set: functional.
Data set [8] has as its system Escherichia coli. Kind of data set: Antibacterial activity against Escherichia coli K12 assessed as bacterial growth inhibition measured for 18 hrs by CLSI-protocol based Mueller-Hinton Broth micro-dilution assay. The data set is classed as functional.
Data set [9] relates to Bacillus subtilis. Kind of data set: Antibacterial activity against Bacillus subtilis 168 assessed as bacterial growth inhibition measured for 18 hrs by CLSI-protocol based Mueller-Hinton Broth micro-dilution assay. Type of data set: functional.
Data set [10] deals with Staphylococcus aureus. Kind of data set: Antibacterial activity against Staphylococcus aureus ATCC 25923 assessed as reduction in bacterial growth measured after 24 hrs by Mueller-Hinton broth based two-fold serial dilution method. The data set is classed as functional.
Data set [11] concerns Erythrocyte. Kind of data set: Hemolytic activity in sheep RBC incubated for 30 mins. Type of data set: toxicity, cell-based, Ovis aries. To be noted: 0.5 h.
In data set [12] the test system is Staphylococcus aureus. Kind of data set: Antibacterial activity against Staphylococcus aureus ATCC 29213 assessed as bacterial growth inhibition measured for 18 hrs by CLSI-protocol based Mueller-Hinton Broth micro-dilution assay. The data set is classed as functional.
In data set [13] the test system is Escherichia coli. Description: Antibacterial activity against Escherichia coli MG1655 assessed as bacterial growth inhibition measured for 18 hrs by CLSI-protocol based Mueller-Hinton Broth micro-dilution assay. Type of data set: functional.
Data set [14] has as its system Pseudomonas aeruginosa. Kind of data set: Antibacterial activity against Pseudomonas aeruginosa ATCC 27853 assessed as bacterial growth inhibition measured for 18 hrs by CLSI-protocol based Mueller-Hinton Broth micro-dilution assay. Type of data set: functional.
Data set [15] relates to Bacillus subtilis. Description: Antimicrobial activity against Bacillus subtilis assessed as reduction in microbial growth measured after 18 to 20 hrs by Mueller-Hinton broth based two-fold serial dilution method. The data set is classed as functional. To be noted: time 18-20 hrs.
A short description of data set [16]: Hemolytic activity against Red blood cells (unknown origin) incubated for 1 hr by spectrophotometric analysis. The data set is classed as toxicity, cell-based, Erythrocyte.
The subject of data set [17] is Bacillus subtilis. Description: Antibacterial activity against Bacillus subtilis assessed as reduction in bacterial growth incubated for 20 hrs by broth microdilution assay. Type of data set: functional.
For data set [18], the system named is Pseudomonas aeruginosa. Description: Antibacterial activity against Pseudomonas aeruginosa PAO1 assessed as bacterial growth inhibition measured for 18 hrs by CLSI-protocol based Mueller-Hinton Broth micro-dilution assay. Type of data set: functional.
The test system of data set [19] is Salmonella typhimurium. Kind of data set: Antibacterial activity against Salmonella enterica subsp. enterica serovar Typhimurium LT2 assessed as bacterial growth inhibition measured for 18 hrs by CLSI-protocol based Mueller-Hinton Broth micro-dilution assay. Type of data set: functional.
The test system of data set [20] is Pseudomonas aeruginosa. Kind of data set: Antibacterial activity against Pseudomonas aeruginosa assessed as reduction in bacterial growth incubated for 20 hrs by broth microdilution assay. The data set is classed as functional.
Data set [21] concerns Escherichia coli. Description: Antibacterial activity against Escherichia coli ATCC 25922 assessed as reduction in bacterial growth measured after 24 hrs by Mueller-Hinton broth based two-fold serial dilution method. Type of data set: functional.
The nature of data set [22]: Hemolytic activity in human red blood cells. Type of data set: toxicity, cell-based, Erythrocyte. To be noted: red blood cells.
Data set [23] relates to Pseudomonas aeruginosa. Description: Antibacterial activity against Pseudomonas aeruginosa. The data set is classed as functional.
The test system of data set [24] is Staphylococcus aureus. Description: Antibacterial activity against Staphylococcus aureus. Type of data set: functional.
Data set [25] can be described thus: Hemolytic activity in human RBC assessed as hemolysis measured after 24 hrs. The data set is classed as toxicity, cell-based, Erythrocyte. To be noted: red blood cells.
The subject of data set [26] is Escherichia coli. Kind of data set: Antibacterial activity against Escherichia coli. The data set is classed as functional.
For data set [27], the system named is Mycolicibacterium smegmatis. Description: Antimycobacterial activity against Mycobacterium smegmatis mc2 155 assessed as reduction in bacterial cell growth by resazurin reduction method. The data set is classed as functional. For orientation: Resazurin is reduced to fluorescent resorufin, in cell work by metabolically active cells.
Data set [28] has as its system Staphylococcus aureus. Kind of data set: Antibacterial activity against methicillin-resistant Staphylococcus aureus ATCC 33591 assessed as reduction in bacterial growth incubated for 18 hrs by agar dilution method. Type of data set: functional. In general terms: In agar dilution the substance is mixed into plates at graded concentrations.
Data set [29] deals with Bacillus subtilis. Description: Antibacterial activity against Bacillus subtilis assessed as reduction in bacterial growth incubated for 24 hrs by broth microdilution assay. The data set is classed as functional.
The subject of data set [30] is Escherichia coli. Kind of data set: Antibacterial activity against Escherichia coli ATCC 25922 assessed as reduction in microbial growth incubated for 16 to 20 hrs by CLSI protocol based Muller Hinton broth assay. The data set is classed as functional. To be noted: time 16-20 hrs.
The test system of data set [31] is Enterococcus faecium. Description: Antibacterial activity against vancomycin resistant Enterococcus faecium ATCC 700221 assessed as inhibition of bacterial growth incubated for 48 hrs by CLSI-based broth microdilution assay. Type of data set: functional.
Data set [32] relates to Pseudomonas aeruginosa. Description: Antibacterial activity against Pseudomonas aeruginosa ATCC 27853 assessed as reduction in microbial growth incubated for 16 to 20 hrs by CLSI protocol based Muller Hinton broth assay. The data set is classed as functional. To be noted: time 16-20 hrs.

What is called MIC is the lowest concentration found to suppress growth. Usually HC50 stands for the concentration that lyses half of the red blood cells. `CC[C@H](C)[C@H](NC(=O)[C@H](CCCCN)NC(=O)[C@H](CCCCN)NC(=O)[C@H](CC(C)C)NC(=O)[C@H](CC(C)C)NC(=O)CN)C(=O)N[C@@H](CCCCN)C(=O)N[C@H](C(=O)N[C@@H](CC(C)C)C(=O)N[C@@H](CC(C)C)C(N)=O)[C@@H](C)O`: the figures for the MIC in data set [1] and in data set [2] were 171 µM (≈ 192 µg/mL) and 56.8 µM (≈ 63.9 µg/mL), respectively. Further, the HC50 in data set [3] stood at 269 µM.

For `CC.CC[C@H](C)[C@H](NC(=O)[C@H](CCCNC(=N)N)NC(=O)[C@H](CCCCN)NC(=O)[C@H](CC(C)C)NC(=O)[C@H](CC(C)C)NC(=O)CN)C(=O)N[C@@H](CCCCN)C(=O)N[C@H](C(=O)N[C@@H](CC(C)C)C(=O)N[C@@H](CC(C)C)C(N)=O)[C@@H](C)O`, the MIC in [4] was 64 µM; in [5], 64 µM; in [6], 32 µM; in data set [7], not below 64 µM; in data set [8], 32 µM; in data set [9], 16 µM. The MIC is 11.3 µM in data set [10]; not below 64 µM in data set [12]; 32 µM in data set [13]; 32 µM in data set [14]; 16 µM in data set [15]; 32 µM in [17]. The MIC in [18] was 16 µM; in data set [19], 64 µM; in [20] it was 32 µM; in [21] it was more than 22.6 µM. For the same molecule, the HC10 in data set [11] was more than 64 µM. This molecule gave an HC50 at 1 h in [16] of more than 400 µM.

On to `CC[C@H](C)[C@H](NC(=O)[C@H](CCCCN)NC(=O)[C@H](CCCCN)NC(=O)[C@H](CC(C)C)NC(=O)[C@H](CC(C)C)NC(=O)CN)C(=O)N[C@@H](CCCCN)C(=O)N[C@@H](CCCCN)C(=O)N[C@@H](CC(C)C)C(=O)N[C@@H](CC(C)C)C(N)=O`, for which the HC50 in [22] is less than 500 µM. For the same molecule, the MIC turned out to be 28.4 µM (≈ 32.7 µg/mL) in data set [23], 56.9 µM (≈ 65.6 µg/mL) in [1], 256 µM (≈ 295 µg/mL) in data set [24] and 25 µM (≈ 28.8 µg/mL) in data set [26]. In addition, the HC50 at 24 h in data set [25] was more than 500 µM.

Take `CC[C@H](C)[C@H](NC(=O)[C@H](Cc1ccccc1)NC(=O)[C@H](CCCCN)NC(=O)[C@H](CC(C)C)NC(=O)[C@H](CC(C)C)NC(=O)CN)C(=O)N[C@@H](CCCCN)C(=O)N[C@@H](CCCCN)C(=O)N[C@@H](CC(C)C)C(=O)N[C@@H](CC(C)C)C(N)=O` (H-GLLKFIKKLL-NH2): the MIC in data set [27] is 12.8 µM (≈ 15 µg/mL); in data set [28] it was 9.5 µM (≈ 11.1 µg/mL); in [29], 25.6 µM (≈ 30 µg/mL); in data set [30] it was 9.5 µM; in data set [31], 9.5 µM (≈ 11.1 µg/mL); in data set [32], 28.4 µM. Also, the HC50 at 24 h in [25] stood at 13.6 µM.
